Measured values published in ChEMBL document CHEMBL3714731, “Heterocyclic compounds for the inhibition of pask” (2014).

Tests used:
[1] = biological target: T1, PAS domain-containing serine/threonine-protein kinase (Homo sapiens, UniProt Q96RG2); test: Inhibition of N-terminal GST-tagged human recombinant PASK kinase domain (879 to 1323 residues) expressed in insect cells using MBP protein substrate incubated for 120 mins in presence of [33P]ATP by scintillation counting based radiochemical assay
[2] = biological target: Casein kinase II subunit alpha' (Homo sapiens, UniProt P19784); test: Inhibition of GST-tagged full-length purified human CK2a2 using RRRDDDSDDD substrate incubated for 120 mins in presence of [33P]ATP by scintillation counting based biochemical assay
[3] = biological target: Serine/threonine-protein kinase pim-1 (Homo sapiens, UniProt P11309); test: Inhibition of human full-length 6xHis-tagged PIM1 expressed in insect cells using S6K1Rsk2 peptide-2 substrate in presence of [33P]ATP incubated for 120 mins by scintillation counting based biochemical assay
[4] = biological target: T1, PAS domain-containing serine/threonine-protein kinase; test: Inhibition of human recombinant PASK using Ulight-peptide substrate incubated for 2 hrs by TR-FRET assay

T1 sequence (Q96RG2 whole entry, the tested form may be a part): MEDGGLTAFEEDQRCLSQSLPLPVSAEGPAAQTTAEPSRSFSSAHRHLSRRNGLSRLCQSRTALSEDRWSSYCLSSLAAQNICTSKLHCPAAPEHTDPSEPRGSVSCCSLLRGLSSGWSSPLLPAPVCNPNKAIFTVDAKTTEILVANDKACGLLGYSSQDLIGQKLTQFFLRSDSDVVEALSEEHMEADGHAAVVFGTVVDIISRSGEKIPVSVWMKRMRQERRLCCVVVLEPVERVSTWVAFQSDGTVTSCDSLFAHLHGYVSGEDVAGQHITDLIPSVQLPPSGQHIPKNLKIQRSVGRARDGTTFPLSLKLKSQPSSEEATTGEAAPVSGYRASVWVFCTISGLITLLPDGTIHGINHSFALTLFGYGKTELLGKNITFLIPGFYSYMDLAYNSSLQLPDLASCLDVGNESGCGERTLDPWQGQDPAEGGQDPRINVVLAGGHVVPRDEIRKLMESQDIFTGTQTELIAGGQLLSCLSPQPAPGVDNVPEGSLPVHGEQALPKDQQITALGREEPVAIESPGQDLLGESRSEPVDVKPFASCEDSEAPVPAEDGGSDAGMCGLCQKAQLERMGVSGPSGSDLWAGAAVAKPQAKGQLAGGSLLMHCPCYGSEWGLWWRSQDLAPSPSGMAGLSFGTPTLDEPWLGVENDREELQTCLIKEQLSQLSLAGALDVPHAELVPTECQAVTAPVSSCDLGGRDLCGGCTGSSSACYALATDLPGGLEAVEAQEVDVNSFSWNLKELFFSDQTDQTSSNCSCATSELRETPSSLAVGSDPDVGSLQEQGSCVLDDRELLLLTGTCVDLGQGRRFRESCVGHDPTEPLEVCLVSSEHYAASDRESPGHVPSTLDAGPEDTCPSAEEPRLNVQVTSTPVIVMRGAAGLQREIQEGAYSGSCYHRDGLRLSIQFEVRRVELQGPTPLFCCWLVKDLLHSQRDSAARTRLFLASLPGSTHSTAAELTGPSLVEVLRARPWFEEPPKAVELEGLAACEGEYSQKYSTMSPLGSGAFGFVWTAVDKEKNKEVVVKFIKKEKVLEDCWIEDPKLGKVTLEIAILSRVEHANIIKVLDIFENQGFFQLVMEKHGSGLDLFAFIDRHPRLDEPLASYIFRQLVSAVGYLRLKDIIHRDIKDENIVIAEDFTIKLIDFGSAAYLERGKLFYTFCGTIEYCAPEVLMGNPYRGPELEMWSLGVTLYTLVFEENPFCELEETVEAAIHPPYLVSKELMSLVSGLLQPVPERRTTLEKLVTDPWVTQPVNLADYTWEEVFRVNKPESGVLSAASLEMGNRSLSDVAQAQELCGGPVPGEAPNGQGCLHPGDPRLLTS
Serine/threonine-protein kinase pim-1, sequence (P11309 whole entry, the tested form may be a part): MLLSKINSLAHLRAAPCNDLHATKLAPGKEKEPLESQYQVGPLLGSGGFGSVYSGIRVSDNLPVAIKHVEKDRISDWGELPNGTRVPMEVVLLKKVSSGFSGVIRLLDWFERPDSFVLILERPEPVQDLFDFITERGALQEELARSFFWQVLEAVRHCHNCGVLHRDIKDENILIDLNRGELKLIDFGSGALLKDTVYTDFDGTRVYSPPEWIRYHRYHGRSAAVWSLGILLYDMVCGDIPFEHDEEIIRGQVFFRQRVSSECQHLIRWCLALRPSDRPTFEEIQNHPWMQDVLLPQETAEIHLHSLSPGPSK
Casein kinase II subunit alpha', sequence (P19784 whole entry): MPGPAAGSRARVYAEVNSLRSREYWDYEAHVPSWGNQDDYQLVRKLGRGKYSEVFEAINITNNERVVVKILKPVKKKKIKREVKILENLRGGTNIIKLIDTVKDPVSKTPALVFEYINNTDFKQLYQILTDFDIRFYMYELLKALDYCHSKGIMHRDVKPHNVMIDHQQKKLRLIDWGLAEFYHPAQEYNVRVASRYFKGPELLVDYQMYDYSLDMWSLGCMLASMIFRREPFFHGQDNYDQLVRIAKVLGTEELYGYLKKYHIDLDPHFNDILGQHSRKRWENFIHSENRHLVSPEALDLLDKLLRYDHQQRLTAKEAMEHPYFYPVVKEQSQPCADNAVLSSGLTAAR

Which results are given for COc1cc(-c2cc(=O)n3ncc(CC#N)c3[nH]2)ccc1Cl?
IC50 [1]: ≤ 10 µM; IC50 [2]: ≤ 10 µM; IC50 [3]: ≤ 10 µM

Which results are given for CCc1cnc(-c2cnn3c(=O)cc(-c4ccc5c(cnn5CC)c4)[nH]c23)o1?
IC50 [1]: ≤ 10 µM; IC50 [2]: ≤ 10 µM; IC50 [3]: ≤ 10 µM

With Cc1coc(-c2cnn3c(=O)cc(-c4ccc5[nH]ncc5c4)[nH]c23)n1 as the compound, how does the IC50 [4] read?
The IC50 was at most 10 µM.
